# Columns and labels:
# Assay type in all cases: cell-based
# IL-6 = test: Inhibition of IL-6 in LPS-stimulated THP-1 human monocyte cells (HTRF); details: IL-6 inhibition, LPS-stimulated THP-1 cells, HTRF
# Procedure: Human monocyte cell line (THP-1 cells; Catalog # TIB-202, ATCC, Manassas, Va.) were cultured in Roswell Park Memorial Institute (RPMI) 1640 Medium (Catalog #21870-100, Buffalo, N.Y.) with 1% L-glutamine, 1% HEPES, 1% Sodium Pyruvate, 2% Sodium Bicarbonate supplemented with 100 units/mL penicillin, 50 μg/mL streptomycin, 2-mercaptoethanol (0.05 mM) [basal medium] and 10% fetal bovine serum (Catalog #16140089, Life Technologies, Carlsbad, Calif.) at 37° C. and 5% CO2.
# THP-1 cells were cultured in basal media with 1% FBS for 24 hours before the start of the assay. Each compound was dissolved in DMSO as a 10 mM stock and used to prepare compound source plates. Serial dilution (1:3, 10-point dose-response curves starting from 10 μM) and compound transfer was performed using the ECHO 550 (Labcyte, Sunnyvale, Calif.) into 384-well white low volume assay plates (Greiner Bio-One) with appropriate DMSO backfill for a final DMSO concentration of 0.1%. THP-1 cells were plated at 5000 cells/well in the 384-well plates and incubated at 37° C. for 2 h. 500 ng/mL of LPS was added after 2 hours and cells were incubated for another 22 hours at 37° C. Plates were spun in a centrifuge for 1 minute at […] and a mixture of anti-IL6 XL665, and anti-IL6 Cryptate diluted in reconstitution buffer (Cisbio Inc.) was added to each well. Following incubation for 3 hrs at room temperature, Homogeneous Time-Resolved Fluorescence (HTRF) was measured using the Envision (Perkin Elmer) at 665 nm and […]. The ratio of fluorescence at 665 nm to 620 nm was used as a readout for IL6 quantification. All samples were processed in duplicate. Readings were normalized to DMSO treated cells and normalized activities were utilized for EC50 calculations using the dose-response log (inhibitor) vs. response variable slope (four parameters) nonlinear regression feature available in GraphPad Prism 5.0 (or Dotmatics). For EC50 of >10 μM, the percent inhibition at 10 μM is provided.
# SW480 colon cancer cells = test: Cell viability assay (CellTiter-Blue) in SW480 colon cancer cells; details: Homo sapiens, 96 h, four days, CellTiter-Blue
# Procedure: Representative compounds were screened using the following assay procedure to assess the effect on cell viability as described below.
# Each compound was dissolved in DMSO as a 10 mM stock and used to prepare compound source plates. Serial dilution (1:3, 8-point dose-response curves from 10 μM to 0.0045 μM) and compound transfer was performed using the ECHO 550 (Labcyte, Sunnyvale, Calif.) into 96-well clear bottom, black-walled plates (Corning-Costar).
# Approximately 2×10^3 SW480 colon cancer cells were seeded into each well and allowed to incubate in the presence or absence of compound for four days at 37° C./5% CO2. Eight replicates of DMSO-treated cells served as controls and cells treated with compound were performed in duplicate.
# After incubation, 20 μL of CellTiter-Blue (Promega) was added to each well allowed to incubate for approximately 3 hours. This reagent was a buffered solution which contains resazurin, metabolically active cells were able to reduce rezarurin (blue) into resorufin (pink) which was highly fluorescent. This measured fluorescence was used as a readout for cell viability.
# After incubation, the plates were read at Ex 560 nm Em 590 nm (Cytation 3, BioTek). Dose-response curves were generated and EC50 concentration values were calculated using non-linear regression curve fit in the GraphPad Prism (San Diego, Calif.) or Dotmatics' Studies Software (Bishops Stortford, UK). For EC50 of >10 μM, the percent inhibition at 10 μM is provided.
# [1] = test system: Wnt activity (Sp5-Luc reporter, TCF/LEF binding sites) in SW480 colon carcinoma cells; test: Screening assay for Wnt activity: Sp5-Luc reporter gene assay in stably transduced SW480 colon carcinoma cells; details: Homo sapiens, overnight incubation, 10-point curve from 10 μM
# Excerpt: The screening assay for Wnt activity is described as follows. Reporter cell lines can be generated by stably transducing cancer cell lines (e.g., colon cancer) or primary cells (e.g., IEC-6 intestinal cells) with a lentiviral construct that includes a Wnt-responsive promoter driving expression of the firefly luciferase gene.
# SW480 colon carcinoma cells were transduced with a lentiviral vector expressing luciferase with a human Sp5 promoter consisting of a sequence of eight TCF/LEF binding sites. SW480 cells stably expressing the Sp5-Luc reporter gene and a hygromycin resistance gene were selected by treatment with 150 μg/mL of hygromycin for 7 days. These stably transduced SW480 cells were expanded in cell culture and used for all further screening activities. Each compound was dissolved in DMSO as a 10 mM stock and used to prepare compound source plates. Serial dilution (1:3, 10-point dose-response curves starting from 10 μM) and compound transfer was performed using the ECHO 550 (Labcyte, Sunnyvale, Calif.) into 384-well white solid bottom assay plates (Greiner Bio-One) with appropriate DMSO backfill for a final DMSO concentration of 0.1%. For Sp5-Luc reporter gene assays, the cells were plated at 4,000 cells/well in 384-well plates with medium containing 1% fetal bovine serum and incubated overnight at 37° C. and 5% CO2. Following incubation, 20 μl of BrightGlo luminescence reagent (Promega) was added to each well of the 384-well assay plates. The plates were placed on an orbital shaker for 2 min and then luminescence was quantified using the Envision (Perkin Elmer) plate reader. Readings were normalized to DMSO only treated cells, and normalized activities were utilized for EC50 calculations using the dose-response log (inhibitor) vs. response variable slope (four parameters) nonlinear regression feature available in GraphPad Prism 5.0 (or Dotmatics). For EC50 of >10 μM, the percent inhibition at 10 μM is provided.
# [2] = test system: Primary human fibroblasts derived from IPF patients (LL29 cells) treated with TGF-β1; test: Inhibition of the fibrotic process: αSMA staining in TGF-β1-treated primary human fibroblasts from IPF patients (LL29 cells); details: Fibroblast, 96 h, % αSMA-positive LL29 cells, TGF-β1 20 ng/mL, 4 days
# Excerpt: Representative compounds were screened using primary human fibroblasts (derived from IPF patients) treated with TGF-β1 to determine their ability to inhibit the fibrotic process.
# Primary human fibroblasts derived from IPF patients (LL29 cells) [^1Xiaoqiu Liu, et. al., “Fibrotic Lung Fibroblasts Show Blunted Inhibition by cAMP Due to Deficient cAMP Response Element-Binding Protein Phosphorylation”, Journal of Pharmacology and Experimental Therapeutics (2005), 315(2), 678-687; ^2Watts, K. L., et. al., “RhoA signaling modulates cyclin D1 expression in human lung fibroblasts; implications for idiopathic pulmonary fibrosis”, Respiratory Research (2006), 7(1), 88] were obtained from American Type Culture Collection (ATCC) and expanded in F12 medium supplemented with 15% Fetal Bovine Serum and Penicillin/Streptomycin.
# Each compound was dissolved in DMSO as a 10 mM stock and used to prepare compound source plates. Serial dilution (1:2, 11-point dose-response curves from 10 μM to […]) and compound transfer was performed using the ECHO 550 (Labcyte, Sunnyvale, Calif.) into 384-well clear bottom assay plates (Greiner Bio-One) with appropriate DMSO backfill for a final DMSO concentration of 0.1%. LL29 cells are plated at 1,500 cells/well in 80 μL/well F12 medium supplemented with 1% Fetal Bovine Serum. One hour after addition of the cells, TGF-β1 (Peprotech; 20 ng/mL) was added to the plates to induce fibrosis (ref 1 and 2 above). Wells treated with TGF-β1 and containing DMSO were used as controls. Cells were incubated at 37° C. and 5% CO2 for 4 days. Following incubation for 4 days, SYTOX green nucleic acid stain (Life Technologies [Thermo Fisher Scientific]) was added to the wells at a final concentration of 1 μM and incubated at room temperature for 30 min. Cells were then fixed using 4% formaldehyde (Electron Microscopy Sciences), washed 3 times with PBS followed by blocking and permeabilization using 3% Bovine Serum Albumin (BSA; Sigma) and 0.3% Triton X-100 (Sigma) in PBS. Cells were then stained with antibody specific to α-smooth muscle actin (αSMA; Abcam) (ref 1 and 2 above) in 3% Bovine Serum Albumin (BSA; Sigma) and 0.3% Triton X-100 (Sigma) in PBS, and incubated overnight at 4° C. Cells were then washed 3 times with PBS, followed by incubation with Alexa Flor-647 conjugated secondary antibody (Life Technologies [Thermo Fisher Scientific]) and DAPI at room temperature for 1 hour. Cells were then washed 3 times with PBS and plates were sealed for imaging. αSMA staining was imaged by excitation at 630 nm and emission at 665 nm and quantified using the Compartmental Analysis program on the CellInsight CX5 (Thermo Scientific). Dead or apoptotic cells were excluded from analysis based on positive SYTOX green staining. % of total cells positive for αSMA were counted in each well and normalized to the average of 11 wells treated with TGF-β1 on the same plate using Dotmatics' Studies Software. The normalized averages (fold change over untreated) of 3 replicate wells for each compound concentration were used to create dose-responses curves and EC50 values were calculated using non-linear regression curve fit in the Dotmatics' Studies Software. For EC50 of >10 μM, the percent inhibition at 10 μM is provided.
smiles,measurement,setting,value
"CC(C)Nc1cncc(-c2ccc3[nH]nc(-c4cc5c(N6CCN(C)CC6)cccc5[nH]4)c3c2)c1 [Compound 236, N-Isopropyl-5-(3-(4-(4-methylpiperazin-1-yl)-1H-indol-2-yl)-1H-indazol-5-yl)pyridin-3-amine]",EC50,IL-6,253 nM
same,EC50,SW480 colon cancer cells,677 nM
same,EC50,[1],352 nM
same,EC50,[2],761 nM
"CCCCC(=O)Nc1cncc(-c2ccc3[nH]nc(-c4cc5c(N6CCN(C)CC6)cccc5[nH]4)c3c2)c1 [Compound 243, N-(5-(3-(4-(4-Methylpiperazin-1-yl)-1H-indol-2-yl)-1H-indazol-5-yl)pyridin-3-yl)pentanamide]",EC50,IL-6,15 nM
same,EC50,SW480 colon cancer cells,1820 nM
same,EC50,[1],664 nM
same,EC50,[2],1270 nM
"CN1CCN(c2cccc3[nH]c(-c4n[nH]c5ccc(-c6cncc(CN7CCC(F)(F)C7)c6)cc45)cc23)CC1 [Compound 250, 5-(5-((3,3-Difluoropyrrolidin-1-yl)methyl)pyridin-3-yl)-3-(4-(4-methylpiperazin-1-yl)-1H-indol-2-yl)-1H-indazole]",EC50,IL-6,99 nM
same,EC50,SW480 colon cancer cells,743 nM
same,EC50,[1],291 nM
same,EC50,[2],364 nM
"Nc1cncc(-c2ccc3[nH]nc(-c4cc5c(-c6ccsc6)cccc5[nH]4)c3c2)c1 [Compound 283, 5-(3-(4-(Thiophen-3-yl)-1H-indol-2-yl)-1H-indazol-5-yl)pyridin-3-amine]",EC50,IL-6,180 nM
same,EC50,SW480 colon cancer cells,111 nM
same,EC50,[1],40 nM
same,EC50,[2],809 nM
"CN(C)c1cncc(-c2ccc3[nH]nc(-c4cc5c(-c6ccoc6)cccc5[nH]4)c3c2)c1 [Compound 315, 5-(3-(4-(Furan-3-yl)-1H-indol-2-yl)-1H-indazol-5-yl)-N,N-dimethylpyridin-3-amine]",EC50,IL-6,200 nM
same,EC50,SW480 colon cancer cells,633 nM
same,EC50,[1],450 nM
same,EC50,[2],4270 nM
"c1cc(-c2ccoc2)c2cc(-c3n[nH]c4ccc(-c5cncc(CN6CCCCC6)c5)cc34)[nH]c2c1 [Compound 323, 3-(4-(Furan-3-yl)-1H-indol-2-yl)-5-(5-(piperidin-1-ylmethyl)pyridin-3-yl)-1H-indazole]",EC50,IL-6,593 nM
same,EC50,SW480 colon cancer cells,442 nM
same,EC50,[1],185 nM
same,EC50,[2],728 nM
"FC1(F)CCN(Cc2cncc(-c3ccc4[nH]nc(-c5cc6c(-c7ccoc7)cccc6[nH]5)c4c3)c2)C1 [Compound 334, 5-(5-((3,3-Difluoropyrrolidin-1-yl)methyl)pyridin-3-yl)-3-(4-(furan-3-yl)-1H-indol-2-yl)-1H-indazole]",EC50,IL-6,475 nM
same,EC50,SW480 colon cancer cells,470 nM
same,EC50,[1],182 nM
same,EC50,[2],154 nM
"O=C(Nc1cncc(-c2ccc3[nH]nc(-c4cc5c(-c6cccs6)cccc5[nH]4)c3c2)c1)C1CCCC1 [Compound 358, N-(5-(3-(4-(Thiophen-2-yl)-1H-indol-2-yl)-1H-indazol-5-yl)pyridin-3-yl) cyclopentanecarboxamide]",EC50,IL-6,732 nM
same,EC50,SW480 colon cancer cells,1100 nM
same,EC50,[1],1230 nM
same,EC50,[2],21 nM
"FC1(F)CCN(Cc2cncc(-c3ccc4[nH]nc(-c5cc6c(-c7cccs7)cccc6[nH]5)c4c3)c2)C1 [Compound 362, 5-(5-((3,3-Difluoropyrrolidin-1-yl)methyl)pyridin-3-yl)-3-(4-(thiophen-2-yl)-1H-indol-2-yl)-1H-indazole]",EC50,IL-6,370 nM
same,EC50,SW480 colon cancer cells,3090 nM
same,EC50,[1],474 nM
same,EC50,[2],619 nM
"CC(C)CC(=O)Nc1cncc(-c2ccc3[nH]nc(-c4cc5c(-c6cc(F)cc(NCCN(C)C)c6)cccc5[nH]4)c3c2)c1 [Compound 450, N-(5-(3-(4-(3-((2-(Dimethylamino)ethyl)amino)-5-fluorophenyl)-1H-indol-2-yl)-1H-indazol-5-yl)pyridin-3-yl)-3-methylbutanamide]",EC50,IL-6,1290 nM
same,EC50,SW480 colon cancer cells,303 nM
same,EC50,[1],137 nM
same,EC50,[2],191 nM
"Cc1ccncc1-c1ccc2[nH]nc(-c3cc4c(-c5cc(F)cc(NCCN(C)C)c5)cccc4[nH]3)c2c1 [Compound 453, N^1-(3-Fluoro-5-(2-(5-(4-methylpyridin-3-yl)-1H-indazol-3-yl)-1H-indol-4-yl)phenyl)-N^2,N^2-dimethylethane-1,2-diamine]",EC50,IL-6,244 nM
same,EC50,SW480 colon cancer cells,640 nM
same,EC50,[1],263 nM
same,EC50,[2],1760 nM
